The text below walks through data of patent publication US20230414775A1, “TUBULYSINS AND PROTEIN-TUBULYSIN CONJUGATES” (priority 2021, published 2023).

pIC50: −log10 of the molar value. Like-named read-outs stand apart in the source and are kept apart here.

The nature of data set [1]: Plasma stability test of payloads (LC-MS/MS, half-life). It counts as in vitro ADME. The settings on record: human plasma, 37° C., time points 0-24 h, read-out: Human plasma stability T1/2 (converted). The protocol:
Stock solutions were prepared at 10 mM in DMSO for the test compound. Aliquots of the stock solutions were diluted to 0.02 mM in 0.05 M sodium phosphate buffer containing 0.5% BSA as the dosing solution. Then 10 μL of the dosing solutions were dosed into 90 μL of pre-warmed plasma (37° C.) in singlet (n=1) in 96-well assay plates to reach a final test concentration of 2 μM. The plates were kept in a 37° C. water bath for the duration of the experiment. At each time point (0, 0.25, 1, 8, 24 h), 400 μL of acetonitrile (containing internal standard) was added into corresponding wells of the assay plates. After the final time point was quenched, the assay plates were shaken on a vibrator (IKA, MTS 2/4) for 10 min (600 rpm/min) and then centrifuged at 5594 g for 15 min (Thermo Multifuge×3R). Aliquots of the supernatant were taken and analyzed by LC-MS/MS. The peak area response ratio to internal standard (PARR) of the compounds at 0.25, 1, 8, and 24 h was compared to the PARR at time zero to determine the percent of test compound remaining at each time point. Half-lives (ti/2) were calculated using Excel software, fitting to a single-phase exponential decay equation.

The subject of a further data set is SK-BR-3 cells. The experiment in a line: SK-BR-3 anti-proliferation assay for payloads (CellTiter-Glo). It counts as cell-based. The settings on record: Homo sapiens, free payload, 120-144 h, read-out: SKBR3. As to the method: The cell line used in the anti-proliferation assays was SK-BR-3, a human breast, adenocarcinoma (pleural effusion) cell line. The cells were grown in McCoy's 5a Medium+10% FBS. To run the assay for payloads, the cells (40 μL, 700 cells) were added to each well in a 384-well plate and incubated for 24 hours at 37° C. with 5% CO2. Then the cells were treated with test compounds at various concentrations using HPD300, and then normalize the DMSO to 0.5%. The control wells contain cells and the medium but lack the test compounds. The plates were incubated for 120 h at 37° C. with 5% CO2. To run the assay for ADCs and some key payloads, the cells (80 μL, 1000 cells) were added to each well in a 96-well plate and incubated for twenty-four hours at 37° C. with 5% CO2. Next, the ADCs or payloads were diluted with Opti-Mem with 0.1% BSA. The cells were treated with test compounds or ADCs (20 μL) at various concentrations in appropriate cell culture medium (total volume, 0.1 mL). The final concentration of DMSO was adjusted to 0.2% and the Opti-Mem with 0.1% BSA was adjusted to 5%. The control wells contained cells and the medium but lacked the test compounds. The plates were incubated for 144 h at 37° C. with 5% CO2. CTG reagent was then added to the wells (25 μL/384-well or 100 μL/96-well). After the plates were shaken for 10 min and then incubated for 10 min at room temperature, paste the clear bottom with white back seal and record luminescence with Envision. The inhibition % was calculated according to the following equation: inhibition %=[1-(assay-blank)/(control-blank)]×100.

A further data set concerns HCT15 cells. Put plainly: HCT15 anti-proliferation / cell killing assay (CellTiter-Glo), with or without verapamil. The data set is classed as cell-based, human. The settings on record: for pIC50: Homo sapiens. The protocol:
The cell line used in the anti-proliferation assays was HCT15, a human colon, colorectal carcinoma cell line. The HCT15 cells were grown in RPMI medium 1640+10% FBS. To run the assay, the cells (40 μL, 400 cells) were added to each well in a 384-well plate and incubated for twenty-four hours at 37° C. with 5% CO2. One hour before adding compounds, freshly dilute Verapamil to 0.2 mg/ml in ddH2O. Add 1 μL/well diluted Verapamil to Verapamil treatment wells and 1 μL/well ddH2O to the non-Verapamil treatment wells. Return plates to the incubator at 37° C. with 5% CO2. Then the cells were treated with test compounds at various concentrations using HPD300, and then normalize the DMSO to 0.5%. The control wells contained cells and the medium but lack the test compounds. The plates were incubated for 120 hours at 37° C. with 5% CO2. CTG reagent was then added to the wells (25 μL). After the plates were shaken for 10 min and then incubated for 10 min at room temperature, paste the clear bottom with white back seal and record luminescence with Envision. The inhibition % was calculated according to the following equation: inhibition %=[1−(assay-blank)/(control-blank)]×100.

The mark [2] stands for this setting: HCT15 cells, no verapamil, 120 h (5 days), read-out: HCT-15.
Where [3] appears, read: HCT-15, HCT15 cells pre-treated with verapamil, 120 h, read-out: HCT-15 with verapamil.

In the case of `CCCCCCN(C(=O)[C@@H](NC(=O)[C@H]1CCCCN1C)[C@@H](C)CC)[C@H](C[C@@H](OCCCO)c1nc(C(=O)N[C@@H](Cc2ccc(N)c(F)c2)CC(C)(C)C(=O)O)cs1)C(C)C` (mixture of isomers) [PA22, Rac-(R)-5-(4-amino-3-fluorophenyl)-4-(2-((1S,3S)-3-((2R,3R)—N-hexyl-3-methyl-2-((S)-1-methylpiperidine-2-carboxamido)pentanamido)-1-(3-hydroxypropoxy)-4-methylpentyl)thiazole-4-carboxamido)-2,2-dimethylpentanoic acid], in data set [1], the half-life at 2 μM was 63.5 h. The values for the pIC50 with SK-BR-3 cells and in the data set with HCT15 cells (setting [2]) were 10.36 and 9.27, respectively. Besides, in the data set with HCT15 cells (HCT15 cells pre-treated with verapamil, 120 h), the “HCT-15 with verapamil (nM)” value was “Not reach”.

For `CCCCCCN(C(=O)[C@@H](NC(=O)[C@H]1CCCCN1CCN)[C@@H](C)CC)[C@H](C[C@@H](OCC)c1nc(C(=O)N[C@@H](Cc2ccc(O)cc2)CC(C)(C)C(=O)O)cs1)C(C)C` [PA4, (S)-4-(2-((1R,3R)-3-((2S,3S)-2-((R)-1-(2-aminoethyl)piperidine-2-carboxamido)-N-hexyl-3-methylpentanamido)-1-ethoxy-4-methylpentyl)thiazole-4-carboxamido)-5-(4-hydroxyphenyl)-2,2-dimethylpentanoic acid], the pIC50 with SK-BR-3 cells was below 9.00; in the data set on HCT15 cells (setting [2]) it was 7.07; in the data set on HCT15 cells (setting [3]) it was 8.21.

As to `CCCCCCN(C(=O)[C@@H](NC(=O)[C@@]1(C)CCCN1CCO)[C@@H](C)CC)[C@H](C[C@@H](OC(C)=O)c1nc(C(=O)N[C@@H](Cc2ccc(N)cc2)CC(C)(C)C(=O)O)cs1)C(C)C` [PA6, (4S)-4-({2-[(1R,3R)-1-(acetyloxy)-3-[(2S,3S)—N-hexyl-2-{[(2R)-1-(2-hydroxyethyl)-2-methylpyrrolidin-2-yl]formamido}-3-methylpentanamido]-4-methylpentyl]-1,3-thiazol-4-yl}formamido)-5-(4-aminophenyl)-2,2-dimethylpentanoic acid], the pIC50 was 9.29 in the data set on SK-BR-3 cells, 8.49 in the data set with HCT15 cells (setting [2]) and 9.21 with HCT15 cells (setting [3]).

`CCCCCCN(C(=O)[C@@H](NC(=O)[C@H]1CCCCN1CCO)[C@@H](C)CC)[C@H](C[C@@H](OC(C)=O)c1nc(C(=O)N[C@@H](Cc2ccc(N)c(F)c2)CC(C)(C)C(=O)O)cs1)C(C)C` [PA8, (4S)-4-({2-[(1R,3R)-1-(acetyloxy)-3-[(2S,3S)—N-hexyl-2-{[(2R)-1-(2-hydroxyethyl)piperidin-2-yl]formamido}-3-methylpentanamido]-4-methylpentyl]-1,3-thiazol-4-yl}formamido)-5-(4-amino-3-fluorophenyl)-2,2-dimethylpentanoic acid]: the pIC50 was 10.77 in the data set with SK-BR-3 cells, 10.14 in the data set on HCT15 cells (setting [2]) and 10.54 in the data set on HCT15 cells (setting [3]).

On to `CCCCCCN(C(=O)[C@@H](NC(=O)[C@H]1CCCCN1CCO)[C@@H](C)CC)[C@H](C[C@@H](OCC)c1nc(C(=O)N[C@@H](Cc2ccc(NC(=O)CN)cc2)CC(C)(C)C(=O)O)cs1)C(C)C` [PA9, (S)-5-(4-(2-aminoacetamido)phenyl)-4-(2-((1R,3R)-1-ethoxy-3-((2S,3S)—N-hexyl-2-((R)-1-(2-hydroxyethyl)piperidine-2-carboxamido)-3-methylpentanamido)-4-methylpentyl)thiazole-4-carboxamido)-2,2-dimethylpentanoic acid], for which the pIC50 is 8.27 in the data set on SK-BR-3 cells, 8.00 with HCT15 cells (setting [2]) and 8.96 in the data set with HCT15 cells (setting [3]).

For `CCCCCCN(C(=O)[C@@H](NC(=O)[C@H]1CCCCN1CC(=O)O)[C@@H](C)CC)[C@H](C[C@@H](OC(C)=O)c1nc(C(=O)N[C@@H](Cc2ccc(N)cc2)CC(C)(C)C(=O)O)cs1)C(C)C` [PA10, (S)-4-(2-((1R,3R)-1-acetoxy-3-((2S,3S)-2-((R)-1-(carboxymethyl)piperidine-2-carboxamido)-N-hexyl-3-methylpentanamido)-4-methylpentyl)thiazole-4-carboxamido)-5-(4-aminophenyl)-2,2-dimethylpentanoic acid], the pIC50 is 8.27 in the data set on SK-BR-3 cells, 7.50 with HCT15 cells (setting [2]) and 8.53 in the data set on HCT15 cells (setting [3]).

Turning to `CCCCCCN(C(=O)[C@@H](NC(=O)[C@H]1CCCCN1CCOCCN)[C@@H](C)CC)[C@H](C[C@@H](OC(C)=O)c1nc(C(=O)N[C@@H](Cc2ccc(N)cc2)CC(C)(C)C(=O)O)cs1)C(C)C` [PA11, (4S)-4-({2-[(1R,3R)-1-(acetyloxy)-3-[(2S,3S)-2-{[(2R)-1-[2-(2-aminoethoxy)ethyl]piperidin-2-yl]formamido}-N-hexyl-3-methylpentanamido]-4-methylpentyl]-1,3-thiazol-4-yl}formamido)-5-(4-aminophenyl)-2,2-dimethylpentanoic acid], the pIC50 was 7.82 with SK-BR-3 cells, 6.83 in the data set on HCT15 cells (setting [2]) and 8.28 with HCT15 cells (setting [3]).

As to `CCCCCCN(C(=O)[C@@H](NC(=O)[C@H]1CCCCN1CCOCCOCCN)[C@@H](C)CC)[C@H](C[C@@H](OC(C)=O)c1nc(C(=O)N[C@@H](Cc2ccc(N)cc2)CC(C)(C)C(=O)O)cs1)C(C)C` [PA12, (4S)-4-({2-[(1R,3R)-1-(acetyloxy)-3-[(2S,3S)-2-{[(2R)-1-{2-[2-(2-aminoethoxy)ethoxy]ethyl}piperidin-2-yl]formamido}-N-hexyl-3-methylpentanamido]-4-methylpentyl]-1,3-thiazol-4-yl}formamido)-5-(4-aminophenyl)-2,2-dimethylpentanoic acid], the values for the pIC50 with SK-BR-3 cells, with HCT15 cells (setting [2]) and in the data set with HCT15 cells (setting [3]) were below 7.00, 7.14 and 8.33, respectively.

Take `CCCCCCN(C(=O)[C@@H](NC(=O)[C@H]1CCCCN1C)[C@@H](C)CC)[C@H](C[C@@H](NC(C)=O)c1nc(C(=O)N[C@@H](Cc2ccc(NC(=O)CN)cc2)CC(C)(C)C(=O)O)cs1)C(C)C` [PA21, (S)-4-(2-((1R,3R)-1-acetamido-3-((2S,3S)—N-hexyl-3-methyl-2-((R)-1-methylpiperidine-2-carboxamido)pentanamido)-4-methylpentyl)thiazole-4-carboxamido)-acid]: the figures for the pIC50 in the data set with SK-BR-3 cells, in the data set with HCT15 cells (setting [2]) and in the data set on HCT15 cells (setting [3]) were 9.15, 7.86 and 8.76, respectively.

For `CCCCCCN(C(=O)[C@@H](NC(=O)[C@H]1CCCCN1C)[C@@H](C)CC)[C@H](C[C@@H](OC(=O)NCC(O)CO)c1nc(C(=O)N[C@@H](Cc2ccc(N)cc2)CC(C)(C)C(=O)O)cs1)C(C)C` (stereo partly drawn) [PA26, (4S)-5-(4-aminophenyl)-4-(2-((3S,6R,8R)-3-((S)-sec-butyl)-5-hexyl-13,14-dihydroxy-6-isopropyl-1-((R)-1-methylpiperidin-2-yl)-1,4,10-trioxo-9-oxa-2,5,11-triazatetradecan-8-yl)thiazole-4-carboxamido)-2,2-dimethylpentanoic acid], the pIC50 in the data set on SK-BR-3 cells was 8.55; in the data set with HCT15 cells (setting [2]), 7.83; in the data set with HCT15 cells (setting [3]) it was 8.65.

Turning to `CCCCCCN(C(=O)[C@@H](NC(=O)[C@H]1CCCCN1C)[C@@H](C)CC)[C@H](C[C@@H](OC(=O)NCC(O)CO)c1nc(C(=O)N[C@@H](Cc2ccc(NCCO)cc2)CC(C)(C)C(=O)O)cs1)C(C)C` (stereo partly drawn) [PA27], the pIC50 is 7.19 with SK-BR-3 cells, below 7.00 with HCT15 cells (setting [2]) and 7.47 in the data set on HCT15 cells (setting [3]).

Turning to `CCCCCCN(C(=O)[C@@H](NC(=O)[C@H]1CCCCO1)[C@@H](C)CC)[C@H](C[C@@H](OCC)c1nc(C(=O)N[C@@H](Cc2ccc(N)cc2)CC(C)(C)C(=O)O)cs1)C(C)C` [PA28], the figures for the pIC50 in the data set on SK-BR-3 cells and in the data set with HCT15 cells (setting [2]) were below 7.00 and 6.81, respectively.
